# Laboratory results taken from publication PMC9598407, “Identification of Staphylococcus aureus Penicillin Binding Protein 4 (PBP4) Inhibitors” (Antibiotics, 2022).
# Entries after “also recorded” stand apart in the source; their conditions may differ.
# How the values were obtained:
# [1] = test system: pbp4 expression in S. aureus CRB; assay: qRT-PCR of pbp4 transcript titers, CRB; format: cell-based, Staphylococcus aureus; details: 25 µM compound, 3 h
# Description: (§1) Given that each of the six compounds appeared to affect PBP4-mediated antibiotic resistance, we considered that their effects may be modulated by either inhibiting the protein’s function or by reducing pbp4 expression, the latter of which may be readily overcome by regulatory mutations that could in-turn easily result in resistance. Thus, we sought to prioritize compounds that may affect the protein’s function and de-prioritize compounds that affect the protein’s expression. Quantitative real-time reverse transcriptase PCR (qRT-PCR) was used to measure the pbp4 transcript titers within USA300 and CRB cells following compound treatment (Figure 2). […] We chose to focus the remainder of our studies on 9314848 (Figure 3A) because the molecule appeared the more druggable and chemically tractable for downstream structure activity relationship studies.
# (§2) PBP4 transcript titers of bacterial cells exposed to putative PBP4 inhibitors were measured using real time quantitative PCR (RT-qPCR), as previously described. […] Bacterial RNA was amplified and measured using PerfeCTa SYBR Green FastMix and qScript cDNA SuperMix kits following the manufacturer’s recommendations (QuantaBio, Beverly, MA, USA). […]
# [2] = test system: pbp4 expression in S. aureus USA300; assay: qRT-PCR of pbp4 transcript titers, USA300; format: cell-based, Staphylococcus aureus; details: 25 µM compound, 3 h
# Description: as §1, §2
# Pseudomonas aeruginosa = assay: Ceftobiprole susceptibility with compound, Pseudomonas aeruginosa; format: cell-based; details: not shown
# Description: (§3) As a means to further evaluate whether the compound affects PBP4 activity a series of assays were performed.
# Enterococcus faecalis = assay: Ceftobiprole susceptibility with compound, Enterococcus faecalis; format: cell-based; details: not shown
# Description: as §3
# S. aureus strain CRB = assay: Fractional inhibitory concentration checkerboard, ceftobiprole + putative PBP4 inhibitor, strain CRB; format: cell-based, Staphylococcus aureus
# Description: (§4) Fractional inhibitory testing was performed in checkerboard format to determine whether putative PBP4 inhibitors potentiated the antimicrobial effects of β-lactams toward S. aureus strains USA300 and CRB, as previously described. To do so, in triplicate 10^5 CFU of each strain (10 µL) was added to individual wells of a microtiter plate containing 90 µL MH media. […] Plates were incubated at 37 °C for 16–20 h and the lowest concentration of each test agent that inhibited bacterial growth alone or in combination was determined by the naked eye. The fractional inhibitory concentration (FIC) index was calculated using the formula: FIC of A (MIC of drug A in combination/MIC of drug A alone) + FIC B ([…]/MIC of drug B alone). A synergistic interaction was defined as a FICI value of less than 0.5, an additive interaction was defined as a FICI value between 0.5 and 1.0, an indifferent interaction was defined as a FICI value between 1.0 and 4.0, and an antagonistic interaction was defined as a FICI value of more than 4.0 [46].
# [3] = test system: S. aureus strain CRB∆pbp4; assay: Fractional inhibitory concentration checkerboard, ceftobiprole + putative PBP4 inhibitor, strain CRB∆pbp4; format: cell-based, Staphylococcus aureus
# S. aureus strain USA300 = assay: microbe, parasite or virus in culture; format: cell-based; details: Staphylococcus aureus, USA300, read-out: Ceftobiprole resistance (MIC) in the presence of compound
# Description: as §4
smiles,measurement,setting,value
CC1CCN(C(=O)c2cccc(NC(=O)Nc3ccc(Cl)cc3)c2)CC1 [Compound 9314848],"pbp4 expression (mRNA titer, qRT-PCR)",[1],did not seem to affect pbp4 expression; also recorded: did not significantly impact pbp4 transcription
same,"pbp4 expression (mRNA titer, qRT-PCR)",[2],did not seem to affect pbp4 expression; also recorded: did not significantly impact pbp4 transcription
same,Effect on ceftobiprole susceptibility,Pseudomonas aeruginosa,no effect
same,Effect on ceftobiprole susceptibility,Enterococcus faecalis,no effect
same,MIC,"S. aureus strain CRB; Staphylococcus aureus, read-out: CRB Alone Cmpd (putative PBP4 inhibitor MIC alone)",400 µM
same,CRB Combination BPR (ceftobiprole MIC in combination),"S. aureus strain CRB; strain CRB, ceftobiprole combined with the indicated putative PBP4 inhibitor",8 µg/mL
same,CRB Combination Cmpd (compound concentration in combination),"S. aureus strain CRB; strain CRB, compound combined with ceftobiprole",25 µM
same,CRB Fold-decrease in ceftobiprole resistance in combination,"S. aureus strain CRB; strain CRB, in combination with the indicated putative PBP4 inhibitor",16 fold
same,MIC,"[3]; Staphylococcus aureus, read-out: CRB∆pbp4 Alone Cmpd (putative PBP4 inhibitor MIC alone)",400 µM
same,CRB∆pbp4 Combination BPR (ceftobiprole MIC in combination),"[3]; strain CRB∆pbp4, ceftobiprole combined with the indicated putative PBP4 inhibitor",0.125 µg/mL
same,CRB∆pbp4 Combination Cmpd (compound concentration in combination),"[3]; strain CRB∆pbp4, compound combined with ceftobiprole",25 µM
same,CRB∆pbp4 Fold-decrease in ceftobiprole resistance in combination,"[3]; strain CRB∆pbp4, in combination with the indicated putative PBP4 inhibitor",2 fold
same,MIC,S. aureus strain USA300,0.25 µg/mL
